In paper PMC4319826, “Potent Natural Soluble Epoxide Hydrolase Inhibitors from Pentadiplandra brazzeana Baillon: Synthesis, Quantification, and Measurement of Biological Activities In Vitro and In Vivo” (PLoS ONE, 2015):
Converted amounts (≈) assume the structure as drawn. “Also recorded” adds a separate entry of the source. Read-outs that look alike come from different tables or passages of the source.

Legend:
[1] = molecular target: T1, recombinant human sEH (Homo sapiens, UniProt P34913); assay: sEH inhibition by radioactivity-based assay (t-DPPO assay), human; assay type: biochemical; settings: for IC50: t-DPPO 50 μM, mean ± SD of three measurements
T1 construct: made in house; host or cells: insect High Five cells, recombinant baculovirus
T1 sequence (P34913 1-555): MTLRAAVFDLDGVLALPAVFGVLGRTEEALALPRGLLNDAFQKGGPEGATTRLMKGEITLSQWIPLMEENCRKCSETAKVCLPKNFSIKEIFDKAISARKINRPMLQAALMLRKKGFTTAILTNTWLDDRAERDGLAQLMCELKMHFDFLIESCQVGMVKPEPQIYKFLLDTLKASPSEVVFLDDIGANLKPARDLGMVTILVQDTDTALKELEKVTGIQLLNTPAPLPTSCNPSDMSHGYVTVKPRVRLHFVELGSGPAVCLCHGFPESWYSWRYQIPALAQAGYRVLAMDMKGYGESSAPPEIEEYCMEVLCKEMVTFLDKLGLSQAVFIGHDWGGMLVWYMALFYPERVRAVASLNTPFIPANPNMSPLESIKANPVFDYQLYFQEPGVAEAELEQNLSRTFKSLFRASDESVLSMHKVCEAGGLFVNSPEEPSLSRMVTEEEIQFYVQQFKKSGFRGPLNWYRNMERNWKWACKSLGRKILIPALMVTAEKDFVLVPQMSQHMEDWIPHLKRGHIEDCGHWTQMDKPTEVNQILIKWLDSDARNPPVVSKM
Method: (§1) Recombinant human and recombinant rat sEH were produced in insect High Five cells using recombinant baculovirus expression vectors, and purified by affinity chromatography as reported previously. Each enzyme appeared as a single band (0.3 μg loading) with an estimated purity of more than 95% by Coomassie Brilliant Blue staining following SDS-PAGE separation (S1 Fig.). The final recombinant sEH preparations had no esterase or glutathione S-transferase activity which interferes with the CMNPC assay as described below.
IC50 values were determined as described previously with slight modifications, using racemic [^3H] trans-diphenylpropene oxide (t-DPPO). Purified recombinant human sEH was diluted in 100 mM sodium phosphate buffer (pH 7.4) containing 0.1 mg/ml BSA, and was incubated in triplicate with inhibitors for 5 min at 30°C prior to the introduction of the radiolabeled substrate (t-DPPO: 50 μM; ∼10,000 cpm/assay). The mixture was incubated at 30°C for 10 min and the reaction was quenched by the addition of 60 μl of methanol. The remaining substrate was extracted by vigorous mixing with 200 μl of isooctane. The radioactivity of the aqueous phase was measured using a liquid scintillation counter (Perkin Elmer Tri-Carb 2810TR, Shelton, CT). Epoxide hydrolase activity was determined as a percentage of the radioactivity corresponding to the diol in the aqueous phase relative to the control.

[2] = test system: sEH; settings: cited from earlier work
[3] = molecular target: T1, recombinant human sEH; assay: sEH inhibition by fluorescent assay (CMNPC assay), human; assay type: biochemical; settings: for IC50: recombinant human sEH 0.96 nM, [S] = 5 μM, mean ± SD of three measurements
Method: as §1
(§2) IC50 values were determined as described previously using cyano (2-methoxynaphthalen-6-yl) methyl trans-(3-phenyl-oxyran-2-yl) methyl carbonate (CMNPC) as a fluorescent substrate. Recombinant human or recombinant rat sEH (0.96 nM) was incubated with crude root extract or inhibitors for 5 min in 25 mM bis-Tris/HCl buffer (pH 7.0) containing 0.1 mg/mL of BSA at 30°C prior to substrate introduction ([S] = 5 μM). Activity was measured by determining the appearance of the 6-methoxy-2-naphthaldehyde with an excitation wavelength of 330 nm and an emission wavelength of 465 nm for 10 min.
The inhibitory potency on human sEH was measured using the CMNPC assay as described in the Materials and Methods. Firstly, the inhibition percentage by each fraction (100 times dilution) was measured (Figure S5&S7). Then the inhibitory potency was measured for the fractions showing higher than 50% inhibition and the IC50 was determined. The potency of each of the fractions is presented as a relative potency to the calculated IC50 of the extract based on the concentration of MMU (Relative potency unit=dilution factor at IC50 of each of fraction/dilution factor at calculated IC50 of the extract based on MMU). […] Data in Table S1&S2 show the relative potency of each fraction and the percentage of recovered potency.

[4] = molecular target: T2, recombinant rat sEH (Rattus norvegicus, UniProt P80299); assay: sEH inhibition by fluorescent assay (CMNPC assay), rat; assay type: biochemical; settings: recombinant rat sEH 0.96 nM, [S] = 5 μM, mean ± SD of three measurements
T2 construct: made in house; host or cells: insect High Five cells, recombinant baculovirus
T2 sequence (P80299 1-554): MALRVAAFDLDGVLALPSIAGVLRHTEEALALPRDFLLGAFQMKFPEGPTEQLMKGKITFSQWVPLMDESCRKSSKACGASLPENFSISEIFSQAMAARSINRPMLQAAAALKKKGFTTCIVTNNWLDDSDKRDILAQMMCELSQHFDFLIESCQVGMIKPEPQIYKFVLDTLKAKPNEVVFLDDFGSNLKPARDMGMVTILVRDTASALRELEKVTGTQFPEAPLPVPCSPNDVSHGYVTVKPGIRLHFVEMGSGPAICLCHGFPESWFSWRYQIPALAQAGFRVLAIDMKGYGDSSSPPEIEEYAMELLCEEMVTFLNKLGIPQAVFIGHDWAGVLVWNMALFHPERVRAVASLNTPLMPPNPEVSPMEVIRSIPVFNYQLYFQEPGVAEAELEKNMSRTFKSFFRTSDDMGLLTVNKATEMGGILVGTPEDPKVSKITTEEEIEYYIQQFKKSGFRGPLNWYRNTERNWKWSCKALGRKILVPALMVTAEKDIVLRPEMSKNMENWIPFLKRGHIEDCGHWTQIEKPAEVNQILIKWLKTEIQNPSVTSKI
Method: as §1, §2

[5] = molecular target: T1, recombinant human sEH; assay: Enzyme kinetics (Dixon method, t-DPPO substrate), dissociation constant; assay type: biochemical
Method: Dissociation constants were determined following the method described by Dixon for competitive tight binding inhibitors, using t-DPPO as a substrate. Inhibitor MMU at concentrations between 0 and 1000 nM was incubated in triplicate for 5 min in 100 mM sodium phosphate buffer (pH 7.4) at 30°C with 100 μl of the enzyme (2 nM of recombinant human sEH). Substrate (4.0 ≤ [S] final ≤ 30 μM) was then added. Velocity was measured as described previously. For each substrate concentration, the plots of the velocity as a function of the inhibitor concentration allow the determination of an apparent inhibition constant (Kiapp). The plot of the Kiapp values as a function of the substrate concentration allows the determination of Ki when [S] = 0. Kiapp was measured in at least 3 separate assays. Results are presented as average ± SE.

[6] = Solubility in sodium phosphate buffer; assay type: physicochemical; settings: sodium phosphate buffer 0.1 M pH 7.4, 25°C, mean±SD
Method: An excess amount of MMU was added to a vial containing sodium phosphate buffer, 0.1 M pH 7.4 (0.25 mL), and the MMU suspension was equilibrated during 1 h of sonication and 48 h of shaking at 25°C, followed by centrifugation. The amount of MMU in the supernatant was analyzed by LC—MS/MS. The result is presented as mean ± SD of triplicate measurement.

[7] = test system: carrageenan induced inflammatory pain; assay: Nociceptive assay, carrageenan-induced inflammatory pain model (von Frey mechanical withdrawal threshold); assay type: in vivo; settings: rat
Method: Male Sprague-Dawley rats weighing 235–280 g were obtained from Charles River Laboratories and maintained in the UC Davis animal housing facility with ad libitum water and food on a 12 h/12 h light-dark cycle. Behavioral nociceptive testing was conducted by assessing mechanical withdrawal threshold using an electronic von Frey anesthesiometer apparatus (IITC, Woodland Hills, CA). […] At least three measurements were taken at 1–2 min inter-stimulus intervals. Data were normalized to percentage values using the formula (mechanical withdrawal threshold (g)) ×100/ (mechanical withdrawal threshold (g) of naïve animals). The analgesic effect of MMU was tested using the intraplantar carrageenan elicited local inflammatory pain model. […] Subsequently, the ability of these treatments to reduce the carrageenan-induced inflammatory pain was monitored over the course of 2.5 h.

[8] = test system: carrageenan induced inflammatory pain; set-up: method as in Rose et al., (2010); settings: rat, ref Rose et al., (2010), cited from earlier work
[9] = test system: human sEH; settings: cited from earlier work

SMILES: C=CCc1ccc(O)c(-c2ccc(O)c(CC=C)c2)c1 [honokiol, reference compound]
- IC50 [1]: 20300 ± 1700 nM
- IC50 [2]: 3400 nM

SMILES: CC(=O)O[C@H]1CC[C@]2(C)[C@H]3CC=C4[C@@H]5CC(C)(C)CC[C@]5(C)CC[C@@]4(C)[C@]3(C)CC[C@H]2C1(C)C [β-amyrin acetate]
- IC50 [2]: 570 nM

SMILES: COc1ccc(CNC(=O)NCc2ccc(OC)cc2)cc1 [MMU, 1,3-Bis (4-methoxybenzyl) urea]
- IC50 [3]: 92 ± 14 nM
- IC50 [1]: 2600 ± 400 nM
- potency relative to honokiol (more potent) ([1]; t-DPPO assay): about 8 fold
- IC50 [4]: 35 ± 5 nM
- Ki [5]: 54 nM
- potency higher than APAU (Ki based) [5]: approximately 2 fold
- potency lower than t-AUCB (Ki based) [5]: approximately 40 fold
- solubility at 48 h [6]: 10.6 ± 2.1 µM (≈ 3.18 µg/mL)
- reduction of carrageenan-induced inflammatory pain ([7]; 10 μg/paw intraplantar, 4 h after carrageenan, monitored 2.5 h): effectively reduced inflammatory pain; also recorded: significantly reduced carrageenan induced inflammatory pain; also recorded: significantly reduced pain levels; also recorded: showed local analgesic effects
- duration of efficacy compared to morphine ([7]; MMU 10 μg/paw vs morphine 10 μg/paw, Tukey p<0.05): longer duration of efficacy compared to morphine

SMILES: CN1CC[C@]23c4c5ccc(O)c4O[C@H]2[C@@H](O)C=C[C@H]3[C@H]1C5 [morphine]
- reduction of carrageenan-induced inflammatory pain ([8]; 10 μg/paw intraplantar): significantly reduced carrageenan induced inflammatory pain; also recorded: significantly reduced pain levels

SMILES: COc1ccc(CNC(=O)NCc2ccccc2)cc1 [BMU, 1-Benzyl-3-(4-methoxybenzyl) urea]
- IC50 [3]: 400 ± 50 nM
- inhibitory activity lower than that of MMU ([3]; with both CMNPC and t-DPPO assays): about 4 fold
- IC50 [1]: 10200 ± 2600 nM
- IC50 [4]: 44 ± 4.2 nM

SMILES: O=C(Nc1ccc(OC(F)(F)F)cc1)NC1CCN(C(=O)C2CC2)CC1 [TPCU, 1-(1-(Cyclopropanecarbonyl)piperidin-4-yl)-3-(4-(trifluoromethoxy)phenyl) urea]
- reduction of carrageenan-induced inflammatory pain ([8]; 10 ng/paw intraplantar): significantly reduced carrageenan induced inflammatory pain; also recorded: significantly reduced pain levels

SMILES: O=C(NCc1ccccc1)NCc1ccccc1 [BBU, 1,3-Dibenzylurea]
- IC50 [3]: 1900 ± 300 nM
- IC50 [1]: 48300 ± 7000 nM
- IC50 [4]: 100 ± 6 nM
